Values of other authors as cited in US20220364053A1, “HUMAN CELLULAR MODEL FOR INVESTIGATING CORTICO-STRIATAL-MIDBRAIN NEURAL PATHWAYS” (The Board of Trustees of the Leland Stanford Junior …, priority 2019, published 2022).

Key:
Porcn = molecular target: T1, Porcn (Homo sapiens, UniProt Q9H237); details: read-out: EC50, Porcn inhibitor
T1 sequence (Q9H237 1-461): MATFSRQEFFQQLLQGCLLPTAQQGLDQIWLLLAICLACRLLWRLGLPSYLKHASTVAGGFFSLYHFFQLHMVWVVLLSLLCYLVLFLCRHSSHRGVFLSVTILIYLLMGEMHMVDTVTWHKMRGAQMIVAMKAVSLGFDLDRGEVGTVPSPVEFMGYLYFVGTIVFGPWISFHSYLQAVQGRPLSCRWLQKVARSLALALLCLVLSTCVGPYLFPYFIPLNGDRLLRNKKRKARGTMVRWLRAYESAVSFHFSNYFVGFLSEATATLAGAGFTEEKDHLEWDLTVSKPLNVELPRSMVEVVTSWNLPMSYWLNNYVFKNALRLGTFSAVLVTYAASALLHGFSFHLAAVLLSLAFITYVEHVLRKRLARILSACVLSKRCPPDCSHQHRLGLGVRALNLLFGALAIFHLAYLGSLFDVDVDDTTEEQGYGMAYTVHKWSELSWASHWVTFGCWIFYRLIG

[1] = molecular target: Wnt3A-mediated activation of a multimerized TCF-binding site driving luciferase; details: HEK293 cells
Smo heptahelical domain = Smo heptahelical domain (Homo sapiens, UniProt Q99835)
TNKS2 = molecular target: T2, TNKS2 (Homo sapiens, UniProt Q9H2K2)
T2 sequence (Q9H2K2 1-1166): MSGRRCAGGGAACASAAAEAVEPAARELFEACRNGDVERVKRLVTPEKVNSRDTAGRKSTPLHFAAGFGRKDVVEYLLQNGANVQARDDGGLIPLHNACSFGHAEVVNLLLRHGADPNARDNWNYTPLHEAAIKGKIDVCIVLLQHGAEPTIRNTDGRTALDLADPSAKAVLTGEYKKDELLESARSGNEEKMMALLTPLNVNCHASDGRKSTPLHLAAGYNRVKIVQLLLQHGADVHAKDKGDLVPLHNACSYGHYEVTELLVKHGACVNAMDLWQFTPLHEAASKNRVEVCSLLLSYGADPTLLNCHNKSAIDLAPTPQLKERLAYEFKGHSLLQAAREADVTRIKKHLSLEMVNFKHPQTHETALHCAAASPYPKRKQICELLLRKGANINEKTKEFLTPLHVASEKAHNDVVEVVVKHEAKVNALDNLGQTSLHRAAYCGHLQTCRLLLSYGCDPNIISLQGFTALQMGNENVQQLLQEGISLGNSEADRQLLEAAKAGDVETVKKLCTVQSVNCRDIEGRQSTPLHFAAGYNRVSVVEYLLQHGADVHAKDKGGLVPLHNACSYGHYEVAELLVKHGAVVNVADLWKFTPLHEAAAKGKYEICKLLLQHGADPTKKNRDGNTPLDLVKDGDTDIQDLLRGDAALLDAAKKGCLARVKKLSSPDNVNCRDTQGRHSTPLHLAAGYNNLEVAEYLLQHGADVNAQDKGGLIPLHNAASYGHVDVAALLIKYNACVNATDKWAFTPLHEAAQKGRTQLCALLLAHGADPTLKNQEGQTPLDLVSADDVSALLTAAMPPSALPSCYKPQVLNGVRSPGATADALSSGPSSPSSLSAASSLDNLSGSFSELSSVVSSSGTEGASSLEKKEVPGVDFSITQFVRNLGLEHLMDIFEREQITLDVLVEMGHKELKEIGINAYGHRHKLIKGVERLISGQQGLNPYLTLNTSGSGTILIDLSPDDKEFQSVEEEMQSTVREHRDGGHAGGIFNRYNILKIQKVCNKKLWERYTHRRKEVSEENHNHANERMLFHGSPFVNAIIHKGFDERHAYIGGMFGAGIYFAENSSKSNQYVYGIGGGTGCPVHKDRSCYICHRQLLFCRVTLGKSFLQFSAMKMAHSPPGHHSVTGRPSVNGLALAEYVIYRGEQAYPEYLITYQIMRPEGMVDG

[2] = molecular target: element-binding protein (CBP) (Homo sapiens, UniProt Q92793); details: read-out: IC50, binds to element-binding protein (CBP)
Wnt signaling = details: TM3 cells; read-out: IC50, inhibits Wnt signaling
[3] = tested on: Wnt processing and secretion; details: cell-free assay; read-out: IC50, inhibitor of Wnt processing and secretion
[4] = tested on: Wnt-stimulated cellular responses

Chain of Smo heptahelical domain (Q99835 28-787): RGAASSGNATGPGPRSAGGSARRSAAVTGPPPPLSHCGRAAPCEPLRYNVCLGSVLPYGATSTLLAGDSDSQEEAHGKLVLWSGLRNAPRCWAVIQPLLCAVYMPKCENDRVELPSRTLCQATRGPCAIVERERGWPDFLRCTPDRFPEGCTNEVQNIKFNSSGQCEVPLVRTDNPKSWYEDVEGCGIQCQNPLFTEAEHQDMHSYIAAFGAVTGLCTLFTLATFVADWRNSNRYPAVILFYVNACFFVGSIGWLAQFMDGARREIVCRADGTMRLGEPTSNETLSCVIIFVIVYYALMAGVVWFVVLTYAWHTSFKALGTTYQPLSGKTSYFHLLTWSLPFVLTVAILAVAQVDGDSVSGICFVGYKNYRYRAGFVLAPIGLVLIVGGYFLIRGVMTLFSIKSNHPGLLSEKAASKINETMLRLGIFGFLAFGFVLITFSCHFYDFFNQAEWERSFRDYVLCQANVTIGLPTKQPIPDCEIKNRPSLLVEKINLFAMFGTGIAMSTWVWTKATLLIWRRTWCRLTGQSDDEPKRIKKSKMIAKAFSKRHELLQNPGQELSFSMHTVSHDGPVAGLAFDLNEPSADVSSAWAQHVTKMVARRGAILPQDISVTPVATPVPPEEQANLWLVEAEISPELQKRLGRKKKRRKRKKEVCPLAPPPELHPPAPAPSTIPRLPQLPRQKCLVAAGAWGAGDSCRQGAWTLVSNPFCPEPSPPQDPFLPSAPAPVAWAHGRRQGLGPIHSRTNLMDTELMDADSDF
Chain of element-binding protein (CBP) (Q92793 whole entry): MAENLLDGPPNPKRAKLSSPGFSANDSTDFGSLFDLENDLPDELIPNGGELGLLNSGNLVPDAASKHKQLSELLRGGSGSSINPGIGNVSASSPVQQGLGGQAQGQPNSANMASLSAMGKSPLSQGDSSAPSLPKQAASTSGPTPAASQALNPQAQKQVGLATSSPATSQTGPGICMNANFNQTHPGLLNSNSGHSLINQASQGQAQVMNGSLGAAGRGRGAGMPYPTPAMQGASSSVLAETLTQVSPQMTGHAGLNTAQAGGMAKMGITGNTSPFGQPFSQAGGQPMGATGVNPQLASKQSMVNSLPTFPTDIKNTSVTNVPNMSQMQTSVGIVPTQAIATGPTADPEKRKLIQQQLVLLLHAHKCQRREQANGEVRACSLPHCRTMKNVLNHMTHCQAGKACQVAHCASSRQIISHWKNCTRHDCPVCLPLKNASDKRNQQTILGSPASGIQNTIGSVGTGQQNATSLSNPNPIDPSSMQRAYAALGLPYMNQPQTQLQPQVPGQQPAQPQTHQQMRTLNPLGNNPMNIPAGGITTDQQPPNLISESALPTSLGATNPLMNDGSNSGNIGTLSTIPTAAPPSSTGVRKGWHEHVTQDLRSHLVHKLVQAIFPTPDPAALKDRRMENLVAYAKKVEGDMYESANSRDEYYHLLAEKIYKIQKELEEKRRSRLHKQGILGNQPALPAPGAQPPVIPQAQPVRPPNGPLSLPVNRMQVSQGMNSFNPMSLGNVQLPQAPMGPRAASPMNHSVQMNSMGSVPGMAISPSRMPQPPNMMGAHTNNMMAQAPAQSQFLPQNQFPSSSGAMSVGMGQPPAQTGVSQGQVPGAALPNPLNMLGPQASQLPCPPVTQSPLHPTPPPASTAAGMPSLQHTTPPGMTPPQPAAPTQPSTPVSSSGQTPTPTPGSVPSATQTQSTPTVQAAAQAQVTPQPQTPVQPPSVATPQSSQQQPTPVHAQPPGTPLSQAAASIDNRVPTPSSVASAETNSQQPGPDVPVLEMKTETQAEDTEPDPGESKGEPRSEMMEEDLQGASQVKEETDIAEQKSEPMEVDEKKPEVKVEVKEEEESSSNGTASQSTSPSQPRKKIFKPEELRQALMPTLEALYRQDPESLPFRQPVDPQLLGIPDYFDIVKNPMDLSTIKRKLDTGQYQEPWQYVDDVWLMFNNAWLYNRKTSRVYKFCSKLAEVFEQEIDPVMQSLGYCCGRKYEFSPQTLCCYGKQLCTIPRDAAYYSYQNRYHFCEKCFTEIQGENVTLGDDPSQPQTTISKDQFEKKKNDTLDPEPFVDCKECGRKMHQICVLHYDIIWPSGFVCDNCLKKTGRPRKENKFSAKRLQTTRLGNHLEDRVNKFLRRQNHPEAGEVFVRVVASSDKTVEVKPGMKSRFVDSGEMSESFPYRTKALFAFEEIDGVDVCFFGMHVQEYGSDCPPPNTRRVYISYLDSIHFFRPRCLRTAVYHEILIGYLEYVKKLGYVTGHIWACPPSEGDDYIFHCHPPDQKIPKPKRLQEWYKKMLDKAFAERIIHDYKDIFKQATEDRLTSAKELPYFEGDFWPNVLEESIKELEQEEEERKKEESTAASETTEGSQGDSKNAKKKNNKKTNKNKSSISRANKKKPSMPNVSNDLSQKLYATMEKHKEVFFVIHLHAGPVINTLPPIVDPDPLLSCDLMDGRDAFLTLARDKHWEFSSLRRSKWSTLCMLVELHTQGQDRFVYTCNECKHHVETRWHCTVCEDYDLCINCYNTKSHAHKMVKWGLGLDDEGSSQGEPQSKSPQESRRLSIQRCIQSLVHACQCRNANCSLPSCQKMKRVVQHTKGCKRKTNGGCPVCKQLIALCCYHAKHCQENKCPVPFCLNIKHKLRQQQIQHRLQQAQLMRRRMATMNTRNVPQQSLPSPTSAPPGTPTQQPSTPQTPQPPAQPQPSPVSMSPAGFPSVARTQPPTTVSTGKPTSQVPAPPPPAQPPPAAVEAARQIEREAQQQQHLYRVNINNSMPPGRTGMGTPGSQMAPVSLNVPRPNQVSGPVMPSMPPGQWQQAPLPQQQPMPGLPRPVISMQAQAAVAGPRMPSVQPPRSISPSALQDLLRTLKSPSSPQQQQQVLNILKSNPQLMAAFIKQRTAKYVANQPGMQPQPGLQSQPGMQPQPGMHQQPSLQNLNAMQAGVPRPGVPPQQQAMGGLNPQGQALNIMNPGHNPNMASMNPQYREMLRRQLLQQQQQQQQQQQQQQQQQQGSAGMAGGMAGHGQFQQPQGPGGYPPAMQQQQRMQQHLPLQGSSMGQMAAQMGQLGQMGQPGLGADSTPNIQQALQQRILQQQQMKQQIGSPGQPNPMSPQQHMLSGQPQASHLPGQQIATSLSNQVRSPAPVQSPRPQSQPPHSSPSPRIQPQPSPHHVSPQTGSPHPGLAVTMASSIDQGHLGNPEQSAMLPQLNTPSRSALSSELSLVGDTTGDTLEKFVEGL

In the case of `O=C(CSc1nc2c(c(=O)n1-c1ccccc1)SCC2)Nc1ccc(-c2ccccc2)cn1` [IWP-L6], the EC50 (Porcn) is given as 0.0005 µM.

For `Cc1cc(-c2ccc(CC(=O)Nc3ccc(-c4cccnc4)cc3)cc2)ccn1` [Wnt-C59], the IC50 [1] is listed as 74 µM.

For `CNC1CCC(N(Cc2cccc(-c3ccncc3)c2)C(=O)c2sc3ccccc3c2Cl)CC1` (centres unmarked) [SAG], the Kd (Smo heptahelical domain) is listed as 0.059 µM.

In the case of `COc1ccc(-n2c(SCCCN3C(=O)c4cccc5cccc(c45)C3=O)nnc2-c2ccncc2)cc1` [WIKI4], the IC50 (TNKS2) is given as 0.015 µM.

In the case of `O=C1[C@H](Cc2ccc(O)cc2)N2C(=O)CCN(C(=O)NCc3ccccc3)[C@H]2CN1Cc1cccc2ccccc12` [ICG-001], the IC50 [2] is given as 3 µM.

In the case of `Cc1cc(-c2ncc(CC(=O)Nc3ccc(-c4cnccn4)cn3)cc2C)ccn1` [LGK-974], the IC50 (Wnt signaling) is given as 0.0004 µM.

In the case of `Cc1ccc2nc(NC(=O)CSc3nc4c(c(=O)n3-c3ccccc3)SCC4)sc2c1` [IWP-2], the IC50 [3] is given as 0.027 µM and the “effect against Wnt-stimulated cellular responses” value [4] is given as “no effect”.
